This is an account of results in patent US10556865B2, “Synergistic herbicidal composition containing certain pyridine or pyrimidine carboxylic acids and certain cereal and rice herbicides” (Dow AgroSciences, LLC, priority 2007, dated 2020).

Holding throughout (format): in vivo
In test [1] the test system is scented mayweed (Matricaria chamomila L; MATCH). Put plainly: Postemergence herbicidal activity of mixtures in cereal crops (greenhouse, visual injury). On the procedure:
(§1) The plants were grown for 7-36 days in a greenhouse with an approximate 14 hour photoperiod which was maintained at about 18° C. during the day and 17° C. during the night. Nutrients and water were added on a regular basis and supplemental lighting was provided with overhead metal halide 1000-Watt lamps as necessary. The plants were employed for testing when they reached the second or third true leaf stage.
(§2) Treatments consisted of compound (as listed in Tables 1 through 64) and a second cereal herbicide alone and in combination. […] Control plants were sprayed in the same manner with the solvent blank.
(§3) The treated plants and control plants were placed in a greenhouse as described above and watered by sub-irrigation to prevent wash-off of the test compounds. After 20-22 days, the condition of the test plants as compared with that of the control plants was determined visually and scored on a scale of 0 to 100 percent where 0 corresponds to no injury and 100 corresponds to complete kill.
(§4) The following equation was used to calculate the expected activity of mixtures containing two active ingredients, A and B: Expected=A+B−(A×B/100)

In test [2] the test system is Italian ryegrass (Lolium multiflorum L; LOLMU). The description is as above. The conditions noted are these: for LOLMU Ob: 25 g/ha. The protocol:
(§5) Seeds of the desired test plant species were planted in Sun Gro MetroMix® 306 planting mixture, which typically has a pH of 6.0 to 6.8 and an organic matter content of about 30 percent, in plastic pots with a surface area of 103.2 square centimeters (cm^2). When required to ensure good germination and healthy plants, a fungicide treatment and/or other chemical or physical treatment was applied. The plants were grown for 7-36 days in a greenhouse with an approximate 14 hour photoperiod which was maintained at about 18° C. during the day and 17° C. during the night. Nutrients and water were added on a regular basis and supplemental lighting was provided with overhead metal halide 1000-Watt lamps as necessary. The plants were employed for testing when they reached the second or third true leaf stage.
(§6) Treatments consisted of compound (as listed in Tables 1 through 64) and a second cereal herbicide alone and in combination. Weighed amounts of esters (methyl) or salts (TEA [triethylammonium], K [potassium]) of 4-amino-3-chloro -6-(4-chloro-2-fluoro-3-methoxyphenyl)pyridine-2-carboxylic acid (Compound A) or of 6-amino-5-chloro-2-(4-chloro-2-fluoro-3-methoxyphenyl)pyrimidine-4-carboxylic acid (Compound B), were placed in 25 milliliter (mL) glass vials and dissolved in a volume of 97:3 v/v acetone/DMSO to obtain 4.5 milligrams (mg) active ingredient (ai)/mL stock solutions. […] The concentrated stock solutions were diluted to 1.5 mg ai/mL with the addition of 2 volumes of an aqueous mixture containing acetone, water, isopropyl alcohol, DMSO, Agri-dex crop oil concentrate, and Triton® X-77 surfactant in a 64.7:26.0:6.7:2.0:0.7:0.01 v/v ratio. A dilution solution was prepared by mixing 1 volume of 97:3 v/v acetone/DMSO and 2 volumes of an aqueous mixture containing acetone, water, isopropyl alcohol, DMSO, Agri-dex crop oil concentrate, and Triton® X-77 surfactant in a 64.7:26.0:6.7:2.0:0.7:0.01 v/v ratio. Compound requirements are based upon a 12 mL application volume at a rate of 187 liters per hectare (L/ha). Spray solutions of the second cereal herbicide and experimental compound mixtures were prepared by adding the stock solutions to the appropriate amount of dilution solution to form 12 mL spray solution with active ingredients in two- and three-way combinations. Formulated compounds were applied to the plant material with an overhead Mandel track sprayer equipped with 8002E nozzles calibrated to deliver 187 L/ha over an application area of 0.503 square meters (m^2) at a spray height of 18 inches (43 cm) above average plant canopy. Control plants were sprayed in the same manner with the solvent blank.
as §3
(§7) Colby's equation was used to determine the herbicidal effects expected from the mixtures (Colby, S. R. 1967. Calculation of the synergistic and antagonistic response of herbicide combinations. Weeds 15:20-22.).
as §4

The subject of test [3] is rigid ryegrass (Lolium rigidum L; LOLRI). The test is described as above. The protocol: as §5, §6, §3, §7, §4
The subject of test [4] is chickweed (Stellaria media L; STEME). The test is described as above. The conditions noted are these: for pest or weed control at 140 g/ha: 140 g/ha alone. On the procedure:
as §5, §6, §3, §7, §4

The test system of test [5] is annual ryegrass (Lolium multiflorum L; LOLMG). Described as above. The conditions noted are these: 125 g/ha, Table 13. On the procedure: as §5, with “When required to ensure good germination and healthy plants, a fungicide treatment and/or other chemical or physical treatment was applied.” left out
(§8) Treatments consisted of compound (as listed in Tables 1 through 64) and a second cereal herbicide alone and in combination. […] The concentrated stock solutions were diluted to 1.5 mg ai/mL with the addition of 2 volumes of an aqueous mixture containing acetone, water, isopropyl alcohol, DMSO, Agri-dex crop oil concentrate, and Triton® X-77 surfactant in a 64.7:26.0:6.7:2.0:0.7:0.01 v/v ratio. A dilution solution was prepared by mixing 1 volume of 97:3 v/v acetone/DMSO and 2 volumes of an aqueous mixture containing acetone, water, isopropyl alcohol, DMSO, Agri-dex crop oil concentrate, and Triton® X-77 surfactant in a 64.7:26.0:6.7:2.0:0.7:0.01 v/v ratio. Compound requirements are based upon a 12 mL application volume at a rate of 187 liters per hectare (L/ha). […] Formulated compounds were applied to the plant material with an overhead Mandel track sprayer equipped with 8002E nozzles calibrated to deliver 187 L/ha over an application area of 0.503 square meters (m^2) at a spray height of 18 inches […] above average plant canopy. Control plants were sprayed in the same manner with the solvent blank.
as §3, §7, §4

The test system of test [6] is littleseed Canarygrass (Phalaris minor L; PHAMI). The description is as above. The settings on record: 125 g/ha, Table 13. On the procedure: as §5, with “When required to ensure good germination and healthy plants, a fungicide treatment and/or other chemical or physical treatment was applied.” left out
as §8, §3, §7, §4

Test [7] concerns bird's-eye speedwell (Veronica persica L; VERPE). The description is as above. The settings on record: Veronica persica, post-emergence, read-out: VERPE Ob. The protocol: as §1, §2, §3, §4
For test [8], the system named is wild pansy (Viola tricolor L; VIOTR). Described as above. The settings on record: Viola tricolor, post-emergence, read-out: VIOTR Ob. On the procedure: as §1, §2, §3, §4
In test [9] the test system is Canada thistle (Cirsium arvense L; CIRAR). Described as above. On the procedure: as §1, §2, §3, §4
Test [10] has as its system wild buckwheat (Polygonum convolvulus L; POLCO). The description is as above. The protocol: as §5, §6, §3, §7, §4
Test [11] has as its system black mustard (Brassica nigra L; BRSNI). The test is described as above. The conditions noted are these: Brassica, post-emergence, read-out: BRSNI Ob. On the procedure:
as §5, §6, §3, §7, §4

The test system of test [12] is kochia (Kochia scoparia L; KCHSC). The description is as above. The settings on record: 450 g/ha alone. The protocol: as §5, §6, §3, §7, §4
The test system of the next test is Cyperus iria L. (CYPIR). Kind of test: Postemergence herbicidal mixtures for weed control in direct seeded rice (greenhouse, visual % injury). The settings on record: CYPIR.
For test [13], the system named is Leptochloa chinensis (L.) NEES (LEFCH). The test is described as above. The conditions noted are these: for % Injury Ob: LEFCH.
For test [14], the system named is Ipomoea hederacea (L.) JACQ. (IPOHE). Put plainly: Postemergence herbicidal mixtures for weed control in direct seeded rice (greenhouse, visual % injury after 3 weeks). The conditions noted are these: IPOHE.
In test [15] the test system is downy brome (Bromus tectorum L; BROTE). Put plainly: Postemergence herbicidal activity of mixtures in cereal crops (greenhouse, visual injury). The settings on record: 25 g/ha, Table 10. On the procedure:
as §5, §6, §3, §7, §4

In test [16] the test system is annual bluegrass (Poa annua L; POAAN). Described as above. The conditions noted are these: 25 g/ha. On the procedure: as §5, §6, §3, §7, §4
In test [17] the test system is windgrass (Apera spica-venti L; APESV). The description is as above. The conditions noted are these: Apera spica-venti, post-emergence, 25 g/ha, Table 17; read-out: APESV Ob. The protocol: as §5, with “When required to ensure good germination and healthy plants, a fungicide treatment and/or other chemical or physical treatment was applied.” left out
as §8, §3, §7, §4

Test [18] has as its system wild oats (Avena fatua L; AVEFA). Described as above. The conditions noted are these: 25 g/ha, Table 17. The protocol: as §5, with “When required to ensure good germination and healthy plants, a fungicide treatment and/or other chemical or physical treatment was applied.” left out
as §8, §3, §7, §4

The mark [19] stands for this setting: Stellaria media, post-emergence, read-out: STEME Ob.

For the compound “2-[4,5-dihydro-4-methyl-4-(1-methylethyl)-5-oxo-1H-imidazol-2-yl]-4(or 5)-methylbenzoic acid [Imazamethabenz, reference compound]”, the “MATCH Ob” value in [1] (125 g/ha) is 0%. Also, the LOLMU in test [2] (125 g/ha, Table 13) came to 0%. Also, the LOLRI in test [3] (125 g/ha, Table 13) is listed as 0%. Besides, the “STEME Ob” value in [4] (125 g/ha) turned out to be 10%. Moreover, in [5], the “LOLMG Ob” value worked out at 0%. In addition, the PHAMI in test [6] stood at 0%.

Take `COc1cc(OC)nc(NC(=O)NS(=O)(=O)N(C)S(C)(=O)=O)n1` [Amidosulfuron]: the pest or weed control at 10 g/ha in test [7] (10 g/ha) and in test [8] (10 g/ha) was 5% in each case. The “CIRAR Ob” value in [9] (10 g/ha) was found to be 20%.

For `CC(C)N1C(=O)c2ccccc2NS1(=O)=O` [Bentazone], the “POLCO Ob” value in test [10] (120 g/ha) was 0%. In test [11] (120 g/ha), the pest or weed control at 120 g/ha worked out at 50%.

On to `N#Cc1cc(Br)c(O)c(Br)c1` [Bromoxynil], for which the pest or weed control at 70 g/ha amounted to 0% in test [1] (Matricaria, post-emergence, 70 g/ha, read-out: MATCH Ob); 0% in test [4] (Stellaria media, post-emergence, 70 g/ha, read-out: STEME Ob); 50% in test [11] (70 g/ha).

For `Cc1ccc(NC(=O)N(C)C)cc1Cl` [Chlorotoluron], in [12], the “KCHSC Ob” value turned out to be 50%. The pest or weed control at 450 g/ha in [11] (450 g/ha alone) worked out at 50%.

Consider `CC1(C)CON(Cc2ccccc2Cl)C1=O` [Clomazone], for which the “% Injury Ob” value in the test on Cyperus iria L. (CYPIR) (560 g/ha alone) stood at 0%; with Cyperus iria L. (CYPIR) (1120 g/ha alone), 0%; in test [13] (560 g/ha alone), 40%.

Turning to `C/C(=N\NC(=O)Nc1cc(F)cc(F)c1)c1ncccc1C(=O)O` [Diflufenzopyr], the “% Injury Ob” value in [14] (4.38 g/ha alone) was 10%; in test [14] (8.75 g/ha alone), 40%; in [14] (17.5 g/ha alone), 60%; in test [14] (35 g/ha alone) it was 65%; in the test with Cyperus iria L. (CYPIR) (4.38 g/ha alone), 10%; in the test with Cyperus iria L. (CYPIR) (8.75 g/ha alone) it was 15%. The results for the “% Injury Ob” value (with Cyperus iria L. (CYPIR) (17.5 g/ha alone); in the test with Cyperus iria L. (CYPIR) (35 g/ha alone); in test [13] (8.75 g/ha alone)) were 20%, 30% and 0%, respectively.

Take `COC(=O)c1c(Cl)nn(C)c1S(=O)(=O)NC(=O)Nc1nc(OC)cc(OC)n1` [Halosulfuron-methyl]: the “% Injury LEFCH Ob” value in [13] (alone 26 g/ha) and in test [13] (alone 52 g/ha) was 0% throughout.

On to `O=C(O)Cc1c[nH]c2ccccc12` [Indol-3-acetic acid], for which the pest or weed control at 140 g/ha came to 0% in test [1] (Matricaria, post-emergence, 140 g/ha alone, read-out: MATCH Ob) and 0% in test [4] (setting [19]). In test [10] (140 g/ha alone), the “POLCO Ob” value turned out to be 0%.

In the case of `O=C(O)CCCc1c[nH]c2ccccc12` [Indol-3-butyric acid], the pest or weed control at 140 g/ha in test [4] (setting [19]) and in test [11] (140 g/ha alone) was 0% throughout.

As for `CSc1nnc(C(C)(C)C)c(=O)n1N` [Metribuzin], the pest or weed control at 50 g/ha in test [7] (50 g/ha alone) was determined as 10%; in test [8] (50 g/ha alone) it was 20%; in test [11] (50 g/ha alone) it was 50%.

`COc1nc(C)nc(=NC(=O)NS(=O)(=O)c2ccccc2C(=O)O)[nH]1` [Metsulfuron]: in test [9] (3.75 g/ha), the “CIRAR Ob” value amounted to 20%.

Take `CCCOc1nn(C(=O)NS(=O)(=O)c2ccccc2C(=O)OC)c(=O)n1C` [Propoxycarbazone-Na, methyl 2-[[[(4,5-dihydro-4-methyl-5-oxo-3-propoxy-1H-1,2,4-triazol-1-yl)carbonyl]amino]sulfonyl]benzoate, reference compound]: the pest or weed control at 15 g/ha in [7] (15 g/ha) turned out to be 5%; in test [1] (Matricaria, post-emergence, 15 g/ha, read-out: MATCH Ob) it was 50%. Besides, the “BROTE Ob” value in test [15] amounted to 92%. Further, the “LOLMU Ob” value in test [2] (Table 10) stood at 17%; in test [2] (Table 17) it was 15%. Besides, the “LOLRI Ob” value in test [3] (25 g/ha, Table 17) amounted to 10%. Also, the entries for the “POAAN Ob” value in [16] (Table 10) and in test [16] (Table 17) were 7% and 5%, respectively. Also, in test [17], the pest or weed control at 25 g/ha was 90%. The “AVEFA Ob” value in test [18] was 76%.

For `COc1nc(C)nc(NC(=O)NS(=O)(=O)c2ccsc2C(=O)O)n1` [Thifensulfuron], the “CIRAR Ob” value in [9] (3.75 g/ha) was 20%.

On to `COc1nc(C)nc(N(C)C(=O)NS(=O)(=O)c2ccccc2C(=O)O)n1` [Tribenuron], for which, in test [9] (3.75 g/ha), the “CIRAR Ob” value was determined as 20%.
